± gives the standard deviation of the averaged measurements.
Columns and labels:
Experiment in all cases: level (log10 ratio to DMSO vehicle control); higher = higher biomarker level / cell amount than vehicle control
Details in all cases: in DMSO
[1] = compound: O=C(O)C(F)(F)C(F)(F)C(F)(F)C(F)(F)C(F)(F)F [Perfluorohexanoic acid]
Method: (§1)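 BioMAP Diversity Plus panel of 12 human primary cell co-culture systems (3C, 4H, LPS, SAg, BT, BF4T, BE3C, CASM3C, HDF3CGF, KF3CT, MyoF, Mphg). Compounds were added 1 h before stimulation and left for 24 h (MyoF 48 h; BT 72 h for soluble read-outs or 6 d for IgG). Biomarkers were read by ELISA, cytotoxicity by SRB, PBMC viability and proliferation by Alamar Blue. Each well value was divided by the mean of 8 DMSO control wells on the same plate and log10 transformed; duplicate blinded samples were tested at 4 concentrations.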

[2] = compound: O=C(O)CCC(F)(F)C(F)(F)C(F)(F)C(F)(F)C(F)(F)F [2H,2H,3H,3H-Perfluorooctanoic acid]
Method: as §1

[3] = compound: O=S(=O)(O)C(F)(F)C(F)(F)C(F)(F)C(F)(F)C(F)(F)C(F)(F)C(F)(F)C(F)(F)F [Perfluorooctanesulfonic acid]
Method: as §1

[4] = compound: CNS(=O)(=O)C(F)(F)C(F)(F)C(F)(F)C(F)(F)C(F)(F)C(F)(F)C(F)(F)C(F)(F)F [N-Methylperfluorooctanesulfonamide]
Method: as §1

[5] = compound: O=S(=O)(O)C(F)(F)C(F)(F)C(F)(F)C(F)(F)C(F)(F)C(F)(F)C(F)(F)C(F)(F)F [Potassium perfluorooctanesulfonate]
Method: as §1

[6] = compound: CC(C)(C)C(=O)CC(=O)C(F)(F)C(F)(F)C(F)(F)F [(Heptafluorobutanoyl)pivaloylmethane]
Method: as §1

Test System | level (log10) ([1]; 6700 nM) | level (log10) ([1]; 20000 nM) | level (log10) ([1]; 60000 nM) | level (log10) ([2]; 6700 nM) | level (log10) ([2]; 20000 nM) | level (log10) ([2]; 60000 nM) | level (log10) ([3]; 6700 nM) | level (log10) ([3]; 20000 nM) | level (log10) ([3]; 60000 nM) | level (log10) ([4]; 6700 nM) | level (log10) ([4]; 20000 nM) | level (log10) ([4]; 60000 nM) | level (log10) ([5]; 6700 nM) | level (log10) ([5]; 20000 nM) | level (log10) ([5]; 60000 nM) | level (log10) ([6]; 6700 nM) | level (log10) ([6]; 20000 nM) | level (log10) ([6]; 60000 nM)
3C:CD87/uPAR | -0.0065 ± 0.0035 | -0.0115 ± 0.00071 | -0.01 ± 0.0099 | -0.0155 ± 0.043 | -0.0055 ± 0.016 | -0.021 ± 0.023 | 0.04 ± 0.037 | 0.0285 ± 0.022 | 0.0235 ± 0.036 | -0.0125 ± 0.059 | -0.052 ± 0.011 | -0.0055 ± 0.032 | -0.0065 ± 0.076 | 0.002 ± 0.017 | 0.015 ± 0.048 | -0.0255 ± 0.056 | -0.0435 ± 0.026 | -0.0255 ± 0.033
3C:CXCL8/IL-8 | -0.006 ± 0.0042 | 0.005 ± 0.0057 | 0.0635 ± 0.037 | -0.032 ± 0.075 | 0.005 ± 0.0042 | 0.0265 ± 0.0092 | 0.009 ± 0.024 | 0.0095 ± 0.026 | 0.049 ± 0.047 | -0.0035 ± 0.0078 | 0.0575 ± 0.012 | 0.064 ± 0.0028 | 0.0295 ± 0.044 | 0.027 ± 0.02 | 0.0555 ± 0.0064 | -0.015 ± 0.011 | -0.007 ± 0.045 | 0.016 ± 0.079
3C:CXCL9/MIG | -0.0065 ± 0.012 | -0.0045 ± 0.00071 | 0.0025 ± 0.012 | -0.006 ± 0.013 | -0.007 ± 0.027 | -0.0075 ± 0.021 | 0.0035 ± 0.00071 | -0.002 ± 0.0057 | 0.009 ± 0.0057 | 0.001 ± 0.0014 | -0.0075 ± 0.011 | 0.022 ± 0.0057 | 0.0085 ± 0.0092 | -0.003 ± 0.0042 | 0.013 ± 0.013 | -0.007 ± 0.016 | -0.0045 ± 0.013 | 0.004 ± 0.0071
3C:HLA-DR | 0.002 ± 0.0042 | 0.004 ± 0.014 | -0.002 ± 0.0085 | -0.0085 ± 0.00071 | -0.019 ± 0.023 | -0.001 ± 0.0071 | 0.0005 ± 0.011 | -0.0095 ± 0.021 | 0.0095 ± 0.023 | -0.0605 ± 0.012 | -0.102 ± 0.016 | -0.072 ± 0.028 | 0.0075 ± 0.0092 | 0.0075 ± 0.0021 | 0.0215 ± 0.0064 | -0.0205 ± 0.013 | -0.0285 ± 0.005 | -0.092 ± 0.035
3C:Proliferation | -0.0055 ± 0.012 | -0.006 ± 0.0028 | -0.01 ± 0.04 | -0.0415 ± 0.022 | -0.038 ± 0.033 | -0.007 ± 0.0014 | 0.0055 ± 0.037 | 0.0115 ± 0.036 | -0.022 ± 0.044 | -0.024 ± 0.02 | -0.125 ± 0.041 | -0.338 ± 0.16 | -0.042 ± 0.035 | -0.0165 ± 0.061 | -0.0445 ± 0.0092 | -0.0155 ± 0.054 | -0.044 ± 0.033 | -0.379 ± 0.24
3C:SRB | -0.0065 ± 0.0078 | -0.011 ± 0.0057 | -0.001 ± 0.0028 | -0.002 | -0.0085 ± 0.0078 | -0.009 ± 0.0085 | 0.018 ± 0.0042 | -0.008 ± 0.0099 | -0.0625 ± 0.015 | 0.0145 ± 0.022 | -0.031 ± 0.0028 | -0.0675 ± 0.028 | 0.0105 ± 0.025 | -0.0195 ± 0.033 | -0.045 ± 0.042 | -0.001 ± 0.0057 | -0.003 ± 0.0071 | -0.061 ± 0.075
4H:CCL2/MCP-1 | -0.0105 ± 0.00071 | -0.027 ± 0.0071 | 0.012 ± 0.021 | 0.009 ± 0.0042 | -0.008 ± 0.0057 | 0.0025 ± 0.0064 | -0.001 ± 0.0085 | -0.0275 ± 0.021 | -0.0255 ± 0.005 | 0.002 ± 0.017 | -0.064 ± 0.017 | -0.103 ± 0.027 | 0.0095 ± 0.023 | -0.0305 ± 0.0064 | -0.0215 ± 0.025 | -0.0085 ± 0.012 | -0.006 ± 0.018 | -0.0195 ± 0.059
4H:CCL26/Eotaxin-3 | 0.0005 ± 0.005 | -0.004 ± 0.0099 | -0.015 ± 0.0071 | 0.032 ± 0.017 | 0.0095 ± 0.016 | 0.0125 ± 0.015 | -0.014 ± 0.0014 | -0.032 ± 0.0028 | -0.0595 ± 0.0064 | -0.0005 ± 0.018 | -0.0415 ± 0.032 | -0.0675 ± 0.025 | 0.0085 ± 0.015 | -0.0495 ± 0.021 | -0.0665 ± 0.037 | -0.002 ± 0.0014 | 0.004 ± 0.0057 | 0.0145 ± 0.016
4H:CD62P/P-selectin | 0.0235 ± 0.064 | 0.0555 ± 0.032 | 0.0255 ± 0.028 | 0.005 ± 0.048 | -0.041 ± 0.073 | 0.002 ± 0.034 | 0.0345 ± 0.0078 | 0.061 ± 0.016 | 0.097 ± 0.018 | 0.0265 ± 0.011 | -0.0345 ± 0.011 | -0.0685 ± 0.0092 | 0.0375 ± 0.015 | 0.085 ± 0.0042 | 0.086 ± 0.027 | -0.045 ± 0.089 | -0.032 ± 0.078 | -0.076 ± 0.16
4H:CD87/uPAR | 0.0025 ± 0.042 | -0.002 ± 0.011 | 0.0205 ± 0.039 | -0.008 ± 0.04 | -0.0065 ± 0.03 | -0.062 ± 0.037 | 0.07 ± 0.033 | 0.065 ± 0.014 | 0.0945 ± 0.049 | -0.012 ± 0.12 | -0.0565 ± 0.071 | -0.046 ± 0.044 | 0.0655 ± 0.044 | 0.037 ± 0.033 | 0.082 ± 0.058 | -0.005 ± 0.057 | -0.0135 ± 0.036 | 0.016 ± 0.12
4H:CD106/VCAM-1 | -0.006 ± 0.028 | 0.0095 ± 0.00071 | 0.041 ± 0.045 | -0.0135 ± 0.0092 | -0.0325 ± 0.026 | -0.0405 ± 0.029 | 0.016 ± 0.0085 | -0.029 | -0.0155 ± 0.0064 | 0 ± 0.0014 | 0.015 ± 0.0042 | -0.0435 ± 0.032 | 0.0085 ± 0.028 | -0.004 ± 0.016 | -0.0095 ± 0.023 | -0.0175 ± 0.019 | 0.021 ± 0.045 | -0.032 ± 0.03
4H:SRB | -0.002 ± 0.0057 | -0.0105 ± 0.00071 | 0.0045 ± 0.015 | -0.004 ± 0.0099 | -0.0115 ± 0.016 | -0.001 ± 0.014 | -0.0005 ± 0.012 | -0.0065 ± 0.011 | -0.0085 ± 0.023 | -0.0045 ± 0.0092 | -0.041 ± 0.0014 | -0.0635 ± 0.054 | -0.0105 ± 0.011 | 0.004 ± 0.024 | -0.0095 ± 0.023 | -0.007 ± 0.0014 | -0.005 ± 0.0071 | -0.0095 ± 0.016
4H:VEGFR2 | -0.003 ± 0.021 | -0.009 ± 0.014 | -0.001 ± 0.024 | 0.008 ± 0.011 | 0.02 ± 0.017 | 0.0155 ± 0.03 | 0.0265 ± 0.029 | 0.0155 ± 0.0064 | 0.019 ± 0.042 | -0.0425 ± 0.032 | -0.096 ± 0.0085 | -0.0995 ± 0.00071 | 0.0245 ± 0.0021 | 0.01 ± 0.024 | 0.027 ± 0.0099 | 0 ± 0.011 | -0.012 ± 0.0071 | -0.0105 ± 0.032
BE3C:CD54/ICAM-1 | 0.0065 ± 0.00071 | -0.0145 ± 0.0064 | -0.014 ± 0.013 | -0.0065 ± 0.0078 | -0.0085 ± 0.005 | -0.0155 ± 0.011 | 0.016 ± 0.011 | 0.0665 ± 0.00071 | -0.263 ± 0.21 | 0.0055 ± 0.0021 | 0.0255 ± 0.0021 | 0.016 ± 0.0071 | 0.027 ± 0.0028 | 0.074 ± 0.024 | 0.0575 ± 0.0064 | -0.0055 ± 0.005 | -0.008 ± 0.0014 | -0.0185 ± 0.011

Reference: the supplement of paper PMC10331698
